Values after ≈ are worked out from the molar mass of the structure shown.

Data set [1] is described as follows: Solubility of sumatriptan in receiver fluid. The format is physicochemical. The conditions noted are these: receiver fluid (10% ethanol in PBS), aqueous with cosolvent or surfactant or cyclodextrin; 10% ethanol in PBS (receiver fluid); read-out: maximum solubility.
Data set [2] can be described thus: Stability of sumatriptan in receiver fluid. The format is physicochemical. The conditions noted are these: 48 hours. The procedure: [table] […] The stability of the raw drug (sumatriptan) in the receiver fluid was determined when stored at 4° C., 25° C., 37° C. and −20° C. over a period of 48 hours.
The nature of data set [3]: Franz cell permeation and mass balance. Type of data set: in vitro ADME, pig. The method, then:
[table] […] A permeation study was performed in order to investigate over what period of time a quantifiable amount of drug could be detected in the receiver fluid. Individually calibrated Franz cells with an average surface area and volume of approximately 0.6 cm^2 and 2 ml respectively were employed to determine the permeation of sumatriptan from the submicron particle formulation. The oral pig mucosa was mounted between two halves of the Franz cell with the mucosal side facing the donor compartment. The receptor compartment 22, having a clamp attachment lug 24, was filled with receiver fluid 27 (10% ethanol in PBS), stirred constantly with a PTFE-coated magnetic follower driven by submersible magnetic stirrer and maintained at 37° C. in a water bath. Approximately 5 mg of each formulation 26 was placed into the donor compartment 21 and the donor compartment was covered with Parafilm® throughout the study. Following the application of the drug formulation, the receiver fluid 27 (200 μl) was removed from the receiver compartment 22 via the sampling arm 25 after, e.g. 1, 2, 4, 6, 24 and 48 hours and analysed via HPLC. Each removed sample was replaced by an equal volume of fresh pre-warmed (37° C.) receiver fluid. At the end of the experiment, a mass balance investigation was performed as follows: A. Surface drug (S), the surface of the oral mucosa containing each formulation was wiped carefully using a sequence of dry and wet cotton buds. Collectively, the cotton buds from each Franz cell were immersed into glass vials containing 5 ml of receiver fluid. The vials were placed in an oscillating shaker and left overnight. An aliquot of 1 ml of the sample was then removed and analysed via HPLC. B. The oral mucosa was placed into a glass vial containing 5 ml of receiver fluid, and placed on a shaker at room temperature overnight. An aliquot of 1 ml of the sample was then removed and analysed via HPLC. C. Franz cell receptor compartment interface (joining section with donor) was swabbed with cotton buds. Collectively, the cotton buds from each Franz cell were immersed into a glass vial containing 5 ml receiver fluid. The vials were then placed in an oscillating shaker and left overnight. An aliquot of 1 ml of the sample was then removed and analysed via HPLC. D. Franz cell donor compartment interface (joining section with receptor) and internal face of the donor compartment was swabbed with cotton buds. Collectively, the cotton buds from each Franz cell were immersed into a glass vial containing 5 ml receiver fluid. The vials were then placed in an oscillating shaker and left overnight. An aliquot of 1 ml of the sample was then removed and analysed via HPLC. This experiment was carried out with the submicron sumatriptan formulation (a remade batch corresponding to Example 1A, batch 25#37/01) (n=6), pure unprocessed sumatriptan (n=3) and blank (n=2), i.e. cells with no formulation applied. […] Test Item 1 is the 40% sumatriptan submicron particle formulation (approximately 5 mg applied to the surface of the mucosa, n=6±SD), Test Item 2 is the unprocessed sumatriptan raw material (approximately 5 mg applied to the surface of the mucosa, n=3±SD) and the Blank is no Test Item applied (n=2).

A word on the solubility: it is the dissolved amount per volume that the medium holds. For `CNS(=O)(=O)Cc1ccc2[nH]cc(CCN(C)C)c2c1` [sumatriptan], the solubility in data set [1] is 1930 µg/mL (≈ 6.54 mM). The “Peak area (stability in receiver fluid)” value in data set [2] (1 μg/ml, 4° C.) worked out at 9366; in data set [2] (1 μg/ml, 25° C.), 9415; in data set [2] (1 μg/ml, 37° C.) it was 7094; in data set [2] (1 μg/ml, −20° C.), 9514; in data set [2] (50 μg/ml, 4° C.), 469462; in data set [2] (50 μg/ml, 25° C.), 470115. For the same molecule, the “Peak area (stability in receiver fluid)” value in data set [2] (50 μg/ml, 37° C.) was determined as 473418; in data set [2] (50 μg/ml, −20° C.), 467385. Also, the “% recovered compared to what was applied” value in data set [3] (Donor) is given as 1.49%; in data set [3] (Mucosa), 8.10%; in data set [3] (Plunger), 5.37%; in data set [3] (Receptor), 0.28%; in data set [3] (Surface) it was 49.33%; in data set [3] (Total amount in receiver fluid), 29.86%. Further, the Sumatriptan recovered worked out at 95.9 µg in data set [3] (Donor); 522 µg in data set [3] (Mucosa); 346 µg in data set [3] (Plunger); 18.2 µg in data set [3] (Receptor); 3180 µg in data set [3] (Surface); 1920 µg in data set [3] (Total amount in receiver fluid, approximately 5 mg applied). Moreover, the recovery in data set [3] (pig, 5 mg, mass balance, based on weight of formulation applied, read-out: total amount recovered compared to the theoretical recovery, Mean) turned out to be 94.4%.

Values taken from patent publication US20100159007A1, “PHARMACEUTICAL COMPOSITIONS FOR TRANSMUCOSAL DELIVERY OF A THERAPEUTICALLY ACTIVE AGENT ON THE BASIS OF SUBMICRON PARTICLES” (PHARMAKODEX LIMITED, priority 2006, published 2010).
